Reference: PMC10196831, “Therapeutic effect of ultra-long-lasting human C-peptide delivery against hyperglycemia-induced neovascularization in diabetic retinopathy” (Theranostics, 2023)

What was measured:
[1] = in vivo; cited from earlier work
[2] = Intraocular C-peptide levels by human C-peptide ELISA after intravitreal injection; assay type: in vivo, C57BL/6 mice; conditions: C57BL/6, mouse, 1.2 ug, single intravitreal injection of equimolar K9-C-peptide (20 μg) or human C-peptide (1.2 μg), whole eyeball lysate, 50 kDa cutoff filtrate, n = 6, read-out: intraocular human C-peptide level at 1 day after injection
Description: To analyze the levels of C-peptide released from intravitreal K9-C-peptide depots, mice were anesthetized with 3% isoflurane and intravitreally injected with a total volume of 2 μL containing 0.6 mg/mL (1.2 μg) C-peptide or 10 mg/mL (20 μg) K9-C-peptide. Proteins were extracted from whole eyeballs using lysis buffer containing 50 mmol/L Tris (pH 7.5), 150 mmol/L sodium chloride, 1% Triton X-100, protease inhibitor cocktail (Roche, Basel, Switzerland), 25 mmol/L β-glycerophosphate, and 2 mmol/L sodium orthovanadate. The lysates were centrifuged at 14,000 rpm for 15 min, and then the supernatants were centrifuged at 8,000 rpm for 10 min using Amicon® Ultra 4 mL centrifugal filters with a molecular weight cutoff of 50 kDa (MilliporeSigma). C-peptide levels in the filtered supernatants (n = 6) were measured using a human C-peptide ELISA kit (MilliporeSigma) according to the manufacturer's protocol.

level at time molar at 24 h [2]: 0.07 nM
Structure (SMILES): CC(C)C[C@H](NC(=O)[C@H](C)NC(=O)[C@H](CC(C)C)NC(=O)[C@@H]1CCCN1C(=O)[C@H](CCC(N)=O)NC(=O)[C@H](CC(C)C)NC(=O)[C@H](CO)NC(=O)CNC(=O)[C@H](C)NC(=O)CNC(=O)[C@@H]1CCCN1C(=O)CNC(=O)CNC(=O)CNC(=O)[C@H](CC(C)C)NC(=O)[C@H](CCC(=O)O)NC(=O)[C@@H](NC(=O)[C@H](CCC(N)=O)NC(=O)CNC(=O)[C@@H](NC(=O)[C@H](CCC(N)=O)NC(=O)[C@H](CC(C)C)NC(=O)[C@H](CC(=O)O)NC(=O)[C@H](CCC(=O)O)NC(=O)[C@H](C)NC(=O)[C@@H](N)CCC(=O)O)C(C)C)C(C)C)C(=O)N[C@@H](CCC(=O)O)C(=O)NCC(=O)N[C@@H](CO)C(=O)N[C@@H](CC(C)C)C(=O)N[C@@H](CCC(N)=O)C(=O)O [human C-peptide]
circulating half-life [1]: 30 min
